From patent US9345681B2, “Anti-obesity agent comprising high-purity EPA” (MOCHIDA PHARMACEUTICAL CO., LTD., priority 2011, dated 2016)

Legend:
[1] = test system: model mouse with obesity not associated with the enhancement of hepatic lipogenesis or fatty liver; conditions: model mouse continuously fed on a high-fat diet; cited from earlier work
CETP = assay: Effects on CETP activity value in high fat diet hamster; format: in vivo, Syrian hamsters; conditions: high fat diet + 2% test substance, 21st day of the administration (FIG. 4)
Method: 6 week old male Syrian hamsters (Japan SLC, Inc.) were bred at a temperature of 23±3° C. and a light-dark cycle of 12 hours on a free feeding of standard diet for 11 days, and the hamsters were divided into 4 groups, namely, standard forage group (Standard) (n=4), high-fat diet group (n=8), EPA group (HF+EPA-E) (n=8), and DHA group (HF+DHA-E) (n=7). The standard diet used was CLEA Rodent Diet CE-2 (4.8% fat) manufactured by CLEA Japan, Inc. and the high fat diet (HF) used was Hypercholesterolemic Hamster Diet (9% sugar and fat 21% fat) manufactured by Wilson. The action of the EPA and the DHA on the CETP activity value was confirmed by using the hamsters fed on a high fat diet. Along with the experiment of the action of suppressing the body weight gain in Experimental Example 1, blood was collected at day 7, 14, and 21 after the starting of the administration, and plasma was separated by centrifugation. Plasma CETP activity value was measured by using a test reagent (CETP activity assay kit manufactured by Bio Vision).

[2] = test system: model mouse with obesity associated with enhanced hepatic lipogenesis or fatty liver; conditions: model mouse continuously fed on a high-fat and high-sugar diet; cited from earlier work
[3] = test system: obesity model hamster fed on a high fat diet; assay: Effect of suppressing the body weight gain in the obesity model hamster fed on a high fat diet; format: in vivo, Syrian hamsters; conditions: for body weight gain rate on the 21st day: mixed diet of high fat diet + 2% test substance, compared with high-fat diet group (FIG. 1)
Method: 6 week old male Syrian hamsters (Japan SLC, Inc.) were bred at a temperature of 23±3° C. and a light-dark cycle of 12 hours on a free feeding of standard diet for 11 days, and the hamsters were divided into 4 groups, namely, standard forage group (Standard) (n=4), high-fat diet group (n=8), EPA group (HF+EPA-E) (n=8), and DHA group (HF+DHA-E) (n=7). The standard diet used was CLEA Rodent Diet CE-2 (4.8% fat) manufactured by CLEA Japan, Inc. and the high fat diet (HF) used was Hypercholesterolemic Hamster Diet (9% sugar and fat 21% fat) manufactured by Wilson. The effects of the EPA and DHA on the body weight gain were confirmed by using hamsters fed on a high fat diet (HF). During the feeding on the high fat diet, a mixed diet of high fat diet+2% EPA-E (comprising 98.24% EPA-E manufactured by Nippon Suisan Kaisha, Ltd.) was given to the EPA group, and a mixed diet of high fat diet+2% DHA-E (comprising 97.4% DHA-E manufactured by Equateq Ltd.) was given to the DHA group (with the diet changed once a day in the morning). The control group was given a high fat diet or a standard diet (comprising 4.8% fat) (with the diet changed once a day in the morning). The body weight was measured from the day of the start of the administration. The body weight gain rate on the 21st day was higher in the group fed on the high-fat diet group compared to the standard forage group, and the group fed on the high-fat diet was in the condition of obesity. […] This confirms that the action of suppressing the body weight gain (or reducing the body weight) of the EPA-E is realized by the action of suppressing (or reducing) the amount of fat, namely, the anti-obesity action.

plasma LDL-C = assay: Effects on LDL-C level in high fat diet hamster; format: in vivo, Syrian hamsters; conditions: high fat diet + 2% test substance, 21st day of the administration (FIG. 3)
Method: 6 week old male Syrian hamsters (Japan SLC, Inc.) were bred at a temperature of 23±3° C. and a light-dark cycle of 12 hours on a free feeding of standard diet for 11 days, and the hamsters were divided into 4 groups, namely, standard forage group (Standard) (n=4), high-fat diet group (n=8), EPA group (HF+EPA-E) (n=8), and DHA group (HF+DHA-E) (n=7). The standard diet used was CLEA Rodent Diet CE-2 (4.8% fat) manufactured by CLEA Japan, Inc. and the high fat diet (HF) used was Hypercholesterolemic Hamster Diet (9% sugar and fat 21% fat) manufactured by Wilson. The action of the EPA and the DHA on the LDL-C level was confirmed by using the hamsters fed on a high fat diet. Along with the experiment of the action of suppressing the body weight gain in Experimental Example 1, blood was collected at day 7, 14, and 21 after the starting of the administration, and plasma was separated by centrifugation. Plasma LDL-C concentration was measured by using a commercially available test reagent (Wako L-Type LDL-C manufactured by Wako Pure Chemical Industries).

SMILES	suppression of body weight gain [1]	plasma CETP activity value (CETP)	suppression of body weight gain [2]	amount of fat in the epididymis on the 21st day ([3]; high fat diet + 2% test substance, 21st day (FIG. 2))	body weight gain rate on the 21st day [3]	plasma LDL-C level (plasma LDL-C)
CC/C=C\C/C=C\C/C=C\C/C=C\C/C=C\CCCC(=O)OCC [EPA-E, ethyl icosapentate]	ineffective	the action of suppressing the increase of the CETP activity was confirmed	effective in suppressing the body weight gain	increase in the amount of fat was significantly suppressed	lower than the control high-fat diet group	an action of suppressing the increase of the plasma LDL-C level was found
CC/C=C\C/C=C\C/C=C\C/C=C\C/C=C\C/C=C\CCC(=O)OCC [DHA-E, ethyl docosahexaenoate]	–	increase in the CETP activity was confirmed	–	–	approximately equal to that of the high-fat diet group	An action of increasing the plasma LDL-C level was found
